What was measured:
Assay in all cases: KINOMEscan competition binding
Details in all cases: compound 10.0 µM
[1] = test system: ABL1 (human), P00519 [E255K]
[2] = target: CASK (human) (UniProt O14936)
[3] = target: CDK13 (human) (UniProt Q14004)
[4] = target: CDK2 (human) (UniProt P24941)
[5] = target: CDK4 CCND1 (human) (UniProt P11802+P24385)
[6] = target: CDKL5 (human) (UniProt O76039)
[7] = target: CSNK1A1 (human) (UniProt P48729)
[8] = target: EGFR (human) (UniProt P00533)
[9] = test system: EGFR (human), P00533 [746-750 del]
[10] = test system: EGFR (human), P00533 [P753S; 747-752 del]
[11] = target: EPHB6 (human) (UniProt O15197)
[12] = target: ERBB3 (human) (UniProt P21860)
[13] = target: ERN1 (human) (UniProt O75460)
[14] = test system: FLT3 (human), P36888 [K663Q]
[15] = target: HIPK4 (human) (UniProt Q8NE63)
Sequence of HIPK4 (human) (Q8NE63 whole entry, looked up): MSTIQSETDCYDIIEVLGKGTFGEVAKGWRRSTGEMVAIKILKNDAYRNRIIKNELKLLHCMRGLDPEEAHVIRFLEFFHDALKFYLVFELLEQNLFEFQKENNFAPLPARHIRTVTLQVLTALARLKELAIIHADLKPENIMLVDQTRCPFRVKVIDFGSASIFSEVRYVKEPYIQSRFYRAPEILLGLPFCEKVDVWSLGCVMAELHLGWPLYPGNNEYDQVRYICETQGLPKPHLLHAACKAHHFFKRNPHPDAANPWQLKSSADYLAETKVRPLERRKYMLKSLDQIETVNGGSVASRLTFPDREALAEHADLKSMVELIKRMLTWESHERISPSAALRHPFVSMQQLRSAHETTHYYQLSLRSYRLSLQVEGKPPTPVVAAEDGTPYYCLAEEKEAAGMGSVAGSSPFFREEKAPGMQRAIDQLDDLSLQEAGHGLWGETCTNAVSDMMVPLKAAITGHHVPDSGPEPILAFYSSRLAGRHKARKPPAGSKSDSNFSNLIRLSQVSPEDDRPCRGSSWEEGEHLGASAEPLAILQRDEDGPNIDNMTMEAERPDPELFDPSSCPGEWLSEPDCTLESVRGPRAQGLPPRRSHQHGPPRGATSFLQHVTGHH

[16] = target: HUNK (human) (UniProt P57058)
[17] = target: IRAK4 (human) (UniProt Q9NWZ3)
Sequence of IRAK4 (human) (Q9NWZ3 whole entry, looked up): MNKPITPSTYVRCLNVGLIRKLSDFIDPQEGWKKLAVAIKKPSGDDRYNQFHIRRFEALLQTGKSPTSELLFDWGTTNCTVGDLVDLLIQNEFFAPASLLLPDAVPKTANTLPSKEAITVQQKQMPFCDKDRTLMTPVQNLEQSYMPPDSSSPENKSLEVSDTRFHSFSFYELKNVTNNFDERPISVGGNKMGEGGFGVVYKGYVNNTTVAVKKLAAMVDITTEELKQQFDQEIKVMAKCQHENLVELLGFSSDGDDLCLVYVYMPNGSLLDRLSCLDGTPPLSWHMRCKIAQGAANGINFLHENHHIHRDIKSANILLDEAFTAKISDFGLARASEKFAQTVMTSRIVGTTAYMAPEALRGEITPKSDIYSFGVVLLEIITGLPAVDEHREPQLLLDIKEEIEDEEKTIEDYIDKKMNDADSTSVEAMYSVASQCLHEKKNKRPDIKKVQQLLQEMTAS

[18] = test system: KIT (human), P10721 [V559D/T670I]
[19] = target: MAK (human) (UniProt P20794)
[20] = target: MAP3K13 (human) (UniProt O43283)
[21] = target: MAP3K15 (human) (UniProt Q6ZN16)
[22] = target: MAP3K2 (human) (UniProt Q9Y2U5)
[23] = target: MET (human) (UniProt P08581)
[24] = target: MTOR (human) (UniProt P42345)
[25] = target: MYLK3 (human) (UniProt Q32MK0)
[26] = target: NEK11 (human) (UniProt Q8NG66)
[27] = target: NEK4 (human) (UniProt P51957)
Sequence of NEK4 (human) (P51957 whole entry, looked up): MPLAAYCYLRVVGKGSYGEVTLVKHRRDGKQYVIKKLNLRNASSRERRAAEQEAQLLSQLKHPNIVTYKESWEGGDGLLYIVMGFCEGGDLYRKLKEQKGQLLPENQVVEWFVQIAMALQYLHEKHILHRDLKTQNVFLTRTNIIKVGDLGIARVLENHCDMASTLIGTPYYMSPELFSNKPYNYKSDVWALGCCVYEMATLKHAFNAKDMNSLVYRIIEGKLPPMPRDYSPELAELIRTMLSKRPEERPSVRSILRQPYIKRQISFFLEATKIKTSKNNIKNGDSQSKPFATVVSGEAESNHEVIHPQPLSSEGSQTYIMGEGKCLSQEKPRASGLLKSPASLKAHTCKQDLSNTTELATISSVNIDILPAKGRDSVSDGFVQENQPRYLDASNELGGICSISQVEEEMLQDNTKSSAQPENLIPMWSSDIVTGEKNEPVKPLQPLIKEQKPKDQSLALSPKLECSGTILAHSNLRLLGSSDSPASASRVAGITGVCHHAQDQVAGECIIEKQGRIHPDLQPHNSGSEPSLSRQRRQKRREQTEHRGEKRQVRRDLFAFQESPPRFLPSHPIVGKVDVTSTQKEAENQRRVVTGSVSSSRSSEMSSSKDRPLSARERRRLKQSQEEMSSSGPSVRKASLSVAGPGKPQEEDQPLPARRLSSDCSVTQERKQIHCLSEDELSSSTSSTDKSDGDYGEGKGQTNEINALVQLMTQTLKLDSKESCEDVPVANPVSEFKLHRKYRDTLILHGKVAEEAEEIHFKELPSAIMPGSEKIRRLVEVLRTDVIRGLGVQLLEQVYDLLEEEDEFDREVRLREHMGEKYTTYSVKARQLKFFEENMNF

[28] = target: PI4KB (human) (UniProt Q9UBF8)
[29] = test system: PIK3CA (human), P42336 [E545A]
[30] = test system: PIK3CA (human), P42336 [Q546K]
[31] = target: PIP4K2C (human) (UniProt Q8TBX8)
[32] = target: PIP5K1C (human) (UniProt O60331)
[33] = target: ROCK1 (human) (UniProt Q13464)
[34] = target: RPS6KB1 (human) (UniProt P23443)
[35] = target: SBK1 (human) (UniProt Q52WX2)
[36] = target: SGK3 (human) (UniProt Q96BR1)
[37] = target: STK32A (human) (UniProt Q8WU08)
[38] = target: STK39 (human) (UniProt Q9UEW8)
[39] = target: TRPM6 (human) (UniProt Q9BX84)
Sequence of TRPM6 (human) (Q9BX84 whole entry, looked up): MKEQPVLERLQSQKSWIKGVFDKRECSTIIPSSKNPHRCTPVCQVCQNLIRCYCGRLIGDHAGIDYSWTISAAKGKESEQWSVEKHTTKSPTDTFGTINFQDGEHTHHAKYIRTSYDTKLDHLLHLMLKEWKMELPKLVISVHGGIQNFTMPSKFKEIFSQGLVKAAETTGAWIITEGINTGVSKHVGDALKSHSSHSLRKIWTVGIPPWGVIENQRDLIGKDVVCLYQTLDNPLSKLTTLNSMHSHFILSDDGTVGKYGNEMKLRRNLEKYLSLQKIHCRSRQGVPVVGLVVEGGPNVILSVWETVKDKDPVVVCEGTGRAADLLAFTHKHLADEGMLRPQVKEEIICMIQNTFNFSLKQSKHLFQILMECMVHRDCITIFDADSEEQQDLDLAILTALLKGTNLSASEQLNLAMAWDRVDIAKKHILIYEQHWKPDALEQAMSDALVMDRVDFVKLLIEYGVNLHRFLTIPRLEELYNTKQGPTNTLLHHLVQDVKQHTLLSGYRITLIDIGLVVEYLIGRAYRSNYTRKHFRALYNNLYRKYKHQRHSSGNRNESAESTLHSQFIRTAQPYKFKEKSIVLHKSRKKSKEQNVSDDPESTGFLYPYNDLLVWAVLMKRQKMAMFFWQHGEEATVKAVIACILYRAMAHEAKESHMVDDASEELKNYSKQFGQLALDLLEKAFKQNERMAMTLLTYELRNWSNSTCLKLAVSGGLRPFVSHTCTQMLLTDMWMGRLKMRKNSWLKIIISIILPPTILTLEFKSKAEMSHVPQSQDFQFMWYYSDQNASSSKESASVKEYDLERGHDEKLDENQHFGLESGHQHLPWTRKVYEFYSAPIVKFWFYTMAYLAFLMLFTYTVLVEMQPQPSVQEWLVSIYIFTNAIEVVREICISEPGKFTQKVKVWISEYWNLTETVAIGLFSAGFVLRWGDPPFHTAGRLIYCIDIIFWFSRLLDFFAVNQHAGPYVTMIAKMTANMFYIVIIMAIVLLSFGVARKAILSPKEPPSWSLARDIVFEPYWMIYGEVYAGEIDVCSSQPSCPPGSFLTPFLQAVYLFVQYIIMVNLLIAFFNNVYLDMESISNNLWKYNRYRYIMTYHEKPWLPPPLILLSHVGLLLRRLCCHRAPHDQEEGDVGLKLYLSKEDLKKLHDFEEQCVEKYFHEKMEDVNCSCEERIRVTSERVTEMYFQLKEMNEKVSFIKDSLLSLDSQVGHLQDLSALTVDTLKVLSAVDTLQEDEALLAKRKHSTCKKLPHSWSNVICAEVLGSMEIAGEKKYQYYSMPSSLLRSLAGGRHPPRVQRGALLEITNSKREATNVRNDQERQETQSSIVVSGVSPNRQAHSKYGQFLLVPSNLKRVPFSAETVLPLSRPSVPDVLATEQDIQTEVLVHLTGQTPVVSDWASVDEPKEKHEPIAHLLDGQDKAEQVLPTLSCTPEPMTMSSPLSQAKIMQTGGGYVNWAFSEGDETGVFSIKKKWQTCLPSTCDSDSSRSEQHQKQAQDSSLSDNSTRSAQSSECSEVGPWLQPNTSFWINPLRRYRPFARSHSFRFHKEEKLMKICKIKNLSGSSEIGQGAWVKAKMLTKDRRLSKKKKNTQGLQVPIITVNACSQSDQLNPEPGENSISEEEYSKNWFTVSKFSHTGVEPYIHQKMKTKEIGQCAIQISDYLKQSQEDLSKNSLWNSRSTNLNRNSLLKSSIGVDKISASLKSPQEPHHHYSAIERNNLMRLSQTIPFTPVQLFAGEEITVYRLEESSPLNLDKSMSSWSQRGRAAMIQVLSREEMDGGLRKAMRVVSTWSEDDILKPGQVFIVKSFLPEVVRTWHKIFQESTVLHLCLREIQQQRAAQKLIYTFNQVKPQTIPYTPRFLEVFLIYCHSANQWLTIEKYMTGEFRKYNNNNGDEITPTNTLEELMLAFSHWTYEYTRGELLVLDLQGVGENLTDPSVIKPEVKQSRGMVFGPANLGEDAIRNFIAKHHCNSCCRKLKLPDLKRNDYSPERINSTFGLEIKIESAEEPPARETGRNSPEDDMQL

[40] = target: YSK4 (human) (UniProt Q56UN5)

Sequence of CDKL5 (human) (O76039 whole entry, looked up): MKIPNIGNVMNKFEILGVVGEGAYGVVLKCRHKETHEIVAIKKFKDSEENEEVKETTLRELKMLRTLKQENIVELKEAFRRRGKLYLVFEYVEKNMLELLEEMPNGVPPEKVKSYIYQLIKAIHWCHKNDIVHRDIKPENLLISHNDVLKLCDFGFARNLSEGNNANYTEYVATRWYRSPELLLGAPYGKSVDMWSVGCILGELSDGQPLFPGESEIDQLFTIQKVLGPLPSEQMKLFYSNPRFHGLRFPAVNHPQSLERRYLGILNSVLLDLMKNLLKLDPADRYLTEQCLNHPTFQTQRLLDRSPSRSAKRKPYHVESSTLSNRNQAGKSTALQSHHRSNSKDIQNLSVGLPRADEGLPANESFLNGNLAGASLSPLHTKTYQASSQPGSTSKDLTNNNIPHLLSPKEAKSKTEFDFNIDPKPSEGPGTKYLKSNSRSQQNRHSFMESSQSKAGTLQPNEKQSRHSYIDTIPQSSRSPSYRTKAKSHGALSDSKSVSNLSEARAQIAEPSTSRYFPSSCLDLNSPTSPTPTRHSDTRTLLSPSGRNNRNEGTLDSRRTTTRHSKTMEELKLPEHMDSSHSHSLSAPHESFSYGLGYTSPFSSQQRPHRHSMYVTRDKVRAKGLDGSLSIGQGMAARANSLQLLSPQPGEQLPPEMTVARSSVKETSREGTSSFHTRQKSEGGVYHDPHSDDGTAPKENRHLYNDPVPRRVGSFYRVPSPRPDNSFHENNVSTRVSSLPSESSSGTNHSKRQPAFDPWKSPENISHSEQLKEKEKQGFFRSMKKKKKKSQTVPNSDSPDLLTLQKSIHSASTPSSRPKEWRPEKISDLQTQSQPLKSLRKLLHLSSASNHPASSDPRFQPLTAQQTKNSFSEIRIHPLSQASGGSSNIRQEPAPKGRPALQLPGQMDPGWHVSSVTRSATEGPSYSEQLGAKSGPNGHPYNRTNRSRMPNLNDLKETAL

C[C@@H](Oc1cc(-n2cnc3ccc(CN4CCN(C)CC4)cc32)sc1C(N)=O)c1ccccc1C(F)(F)F
kinase still bound, per cent of control [1]: 55%
kinase still bound, per cent of control [2]: 50%
kinase still bound, per cent of control [3]: 26%
kinase still bound, per cent of control [4]: 85%
kinase still bound, per cent of control [5]: 91%
kinase still bound, per cent of control [6]: 31%
kinase still bound, per cent of control [7]: 91%
kinase still bound, per cent of control [8]: 87%
kinase still bound, per cent of control [9]: 100%
kinase still bound, per cent of control [10]: 97%
kinase still bound, per cent of control [11]: 59%
kinase still bound, per cent of control [12]: 100%
kinase still bound, per cent of control [13]: 34%
kinase still bound, per cent of control [14]: 14%
kinase still bound, per cent of control [15]: 36%
kinase still bound, per cent of control [16]: 78%
kinase still bound, per cent of control [17]: 43%
kinase still bound, per cent of control [18]: 37%
kinase still bound, per cent of control [19]: 100%
kinase still bound, per cent of control [20]: 87%
kinase still bound, per cent of control [21]: 24%
kinase still bound, per cent of control [22]: 100%
kinase still bound, per cent of control [23]: 76%
kinase still bound, per cent of control [24]: 55%
kinase still bound, per cent of control [25]: 100%
kinase still bound, per cent of control [26]: 100%
kinase still bound, per cent of control [27]: 69%
kinase still bound, per cent of control [28]: 100%
kinase still bound, per cent of control [29]: 40%
kinase still bound, per cent of control [30]: 29%
kinase still bound, per cent of control [31]: 62%
kinase still bound, per cent of control [32]: 18%
kinase still bound, per cent of control [33]: 7.9%
kinase still bound, per cent of control [34]: 52%
kinase still bound, per cent of control [35]: 55%
kinase still bound, per cent of control [36]: 28%
kinase still bound, per cent of control [37]: 66%
kinase still bound, per cent of control [38]: 11%
kinase still bound, per cent of control [39]: 100%
kinase still bound, per cent of control [40]: 12%

O=C(NC1CC1)c1cccc(-c2ccc3c(NC(=O)C4CC4)n[nH]c3c2)c1
kinase still bound, per cent of control [1]: 55%
kinase still bound, per cent of control [2]: 82%
kinase still bound, per cent of control [3]: 82%
kinase still bound, per cent of control [4]: 3.4%
kinase still bound, per cent of control [5]: 94%
kinase still bound, per cent of control [6]: 42%
kinase still bound, per cent of control [7]: 100%
kinase still bound, per cent of control [8]: 96%
kinase still bound, per cent of control [9]: 90%
kinase still bound, per cent of control [10]: 96%
kinase still bound, per cent of control [11]: 1.4%
kinase still bound, per cent of control [12]: 69%
kinase still bound, per cent of control [13]: 100%
kinase still bound, per cent of control [14]: 61%
kinase still bound, per cent of control [15]: 40%
kinase still bound, per cent of control [16]: 64%
kinase still bound, per cent of control [17]: 88%
kinase still bound, per cent of control [18]: 43%
kinase still bound, per cent of control [19]: 51%
kinase still bound, per cent of control [20]: 64%
kinase still bound, per cent of control [21]: 100%
kinase still bound, per cent of control [22]: 63%
kinase still bound, per cent of control [23]: 75%
kinase still bound, per cent of control [24]: 100%
kinase still bound, per cent of control [25]: 46%
kinase still bound, per cent of control [26]: 95%
kinase still bound, per cent of control [27]: 100%
kinase still bound, per cent of control [28]: 84%
kinase still bound, per cent of control [29]: 93%
kinase still bound, per cent of control [30]: 98%
kinase still bound, per cent of control [31]: 95%
kinase still bound, per cent of control [32]: 12%
kinase still bound, per cent of control [33]: 57%
kinase still bound, per cent of control [34]: 100%
kinase still bound, per cent of control [35]: 100%
kinase still bound, per cent of control [36]: 42%
kinase still bound, per cent of control [37]: 78%
kinase still bound, per cent of control [38]: 99%
kinase still bound, per cent of control [39]: 100%
kinase still bound, per cent of control [40]: 5.9%

CN(C)C/C=C/C(=O)Nc1cccc(Nc2ncc3c(n2)N(C)c2ccccc2C(=O)N3C)c1
kinase still bound, per cent of control [1]: 0.1%
kinase still bound, per cent of control [2]: 39%
kinase still bound, per cent of control [3]: 96%
kinase still bound, per cent of control [4]: 94%
kinase still bound, per cent of control [5]: 78%
kinase still bound, per cent of control [6]: 100%
kinase still bound, per cent of control [7]: 26%
kinase still bound, per cent of control [8]: 69%
kinase still bound, per cent of control [9]: 90%
kinase still bound, per cent of control [10]: 100%
kinase still bound, per cent of control [11]: 4.3%
kinase still bound, per cent of control [12]: 89%
kinase still bound, per cent of control [13]: 69%
kinase still bound, per cent of control [14]: 37%
kinase still bound, per cent of control [15]: 76%
kinase still bound, per cent of control [16]: 47%
kinase still bound, per cent of control [17]: 73%
kinase still bound, per cent of control [18]: 65%
kinase still bound, per cent of control [19]: 100%
kinase still bound, per cent of control [20]: 40%
kinase still bound, per cent of control [21]: 69%
kinase still bound, per cent of control [22]: 0.1%
kinase still bound, per cent of control [23]: 48%
kinase still bound, per cent of control [24]: 74%
kinase still bound, per cent of control [25]: 100%
kinase still bound, per cent of control [26]: 77%
kinase still bound, per cent of control [27]: 87%
kinase still bound, per cent of control [28]: 87%
kinase still bound, per cent of control [29]: 67%
kinase still bound, per cent of control [30]: 30%
kinase still bound, per cent of control [31]: 6%
kinase still bound, per cent of control [32]: 11%
kinase still bound, per cent of control [33]: 49%
kinase still bound, per cent of control [34]: 63%
kinase still bound, per cent of control [35]: 7.6%
kinase still bound, per cent of control [36]: 90%
kinase still bound, per cent of control [37]: 100%
kinase still bound, per cent of control [38]: 100%
kinase still bound, per cent of control [39]: 91%
kinase still bound, per cent of control [40]: 6.2%

— the kinase profiling compilation of Christmann-Franck et al. (2016)
